{"source": "paper PMC12035797", "about": "“Peptidomimetics Activating the Proteasome: A New Perspective for Parkinson’s Treatment” (Journal of Medicinal Chemistry, 2025)", "key": {"[1]": {"system": "hippocampal neurons containing Lewy body-like pS129-αsyn aggregates", "assay": "pS129-α-synuclein aggregates in PFF-treated hippocampal neurons", "assay_type": "cell-based, mouse", "conditions": "7 days after PFFs, 0.5 and 2.5 μM", "text": "Encouraged by the results received, we tested the ability of the modulator-CPP constructs to increase α-synuclein degradation in a cell model using primary mouse neuronal cells. The presence of Lewy-like neurites and Lewy-like bodies containing aggregated α-synuclein with phosphorylated serine 129 (pS129-αsyn) is a characteristic feature of the brains of people with Parkinson’s disease. To mimic these aggregations, we introduced a solution of preformed fibrils (PFFs) to the media of neuronal cells, which led to the induction of α-synuclein phosphorylation and its aggregation in neurons isolated from mouse embryos. PFFs are purified, prion-like fibrils of α-synuclein that are produced by expressing a recombinant monomeric protein in bacteria. Seven days after PFFs are introduced to the cells, large aggregates are visible in the cell soma, often next to the cell nucleus. We added the PFF solution to the hippocampal cells, and after an hour of incubation, we introduced solutions of the activator. After 7 days, we immunostained neuronal cells using a monoclonal antibody against the NeuN protein, which is commonly used in neuronal differentiation studies to assess their functional status. Additionally, we stained the nuclei of all incubated cells with DAPI. […] It is noteworthy that the number of cells in samples with activators was slightly higher (Figure 5), which may indicate neuroprotective properties. […] The main tool for monitoring this process was an antibody against pS129-αsyn. […] The fluorescent microscopy images (Figure 5) show the difference between the amounts of aggregated protein in the control sample and in the samples containing activators at different concentrations.\nCells were isolated from pregnant mouse embryos at E16.0 and plated on precoated with poly-L-lysine wells of 96-well plates (PerkinElmer/Revvity Inc., Waltham, MA, USA) at 25,000 cells/well. The final medium volume was 150 μL/well. Cells were incubated at 37 °C, 5% CO2. […]"}, "[2]": {"assay": "PAMPA, blood–brain barrier mimic", "assay_type": "in vitro ADME", "conditions": "500 μM, 37 °C, 22 h", "text": "In neurodegenerative diseases, proteins prone to aggregation accumulate in the neuronal cells. Therefore, a necessary feature of potential drugs is not only permeability across the cell membrane but also the ability to cross the blood-brain barrier (BBB). To preliminarily investigate this feature, we performed parallel artificial membrane permeation assays (PAMPA) including as positive controls propranolol and Tat47-57, known for their ability to penetrate the blood-brain barrier. Dopamine hydrobromide was included as a negative control. For comparison, we also tested compound 1a, which is devoid of a CPP sequence. […] The PAMPA was performed as previously described.[21] Briefly, a 2% solution of porcine brain lipid membrane (PBL; Avanti Polar Lipids Inc., Alabaster, AL, USA) in anhydrous dodecane was used as a mimic of the blood-brain barrier. Propranolol hydrochloride (Merck, Darmstadt, Germany) and Tat47-57 (synthesized in-house) served as positive controls, while dopamine hydrobromide (Merck, Darmstadt, Germany) was used as a negative control. Stock solutions of the tested compounds and controls were prepared at a concentration of 10 mM in deionized water and then diluted to 500 μM using 0.1 M PBS containing 5% DMSO. The donor-acceptor plate assembly was incubated at 37 °C while being shaken at 250 rpm for 22 h. Absorbance at 290 nm was measured for propranolol using an Infinite […] plate reader (Infinite […] plate reader, Tecan). For the other samples, fluorescence measurements were performed after the compounds were reacted with 0.02% fluorescamine. The rate of passive diffusion was calculated as the linear velocity of permeation (Pe). The data represent an average of three independent biological replicates."}, "[3]": {"system": "endogenous α-synuclein in primary cortical cultures", "assay": "Endogenous α-synuclein level in primary cortical cultures (Simple Western Jess)", "assay_type": "cell-based, mouse", "conditions": "2.5 μM, 7 days; statistical significance only for 1g", "description": "The effectiveness of the compounds has also been examined by using proteins as substrates. By means of SDS-PAGE electrophoresis, we checked the extent to which model proteins were digested by the 20S proteasome alone and after its stimulation by 10 μM modulators. […] After incubation with the enzyme in the presence of each modulator, less than 40% of synuclein remained. […] All animal experiments were performed following the protocols evaluated and approved by the Laboratory Animal Centre of the University of Helsinki (Ethics Approval License KEK24-013) and in accordance with the European Community Guidelines (Directive 2010/63/EU). […] The viability and number of neuronal cells were calculated automatically in an Automated Cell Counter (Bio-Rad), plated at a density of 1,000,000 cells per well on 6-well plates and cultured in Neurobasal A Medium (Thermo Fisher Scientific (Gibco), #12349015, Waltham, MA, USA) supplemented with GlutaMAX (Thermo Fisher Scientific (Gibco) #A1286001, Waltham, MA, USA), B-27 Supplement (Thermo Fisher Scientific (Gibco), #17504001, Waltham, MA, USA), and 200 ng/mL Primocin (Invitrogen, ant-pm-1, San Diego, CA, USA). […] Protein concentrations in the cell lysates were determined using a bicinchoninic acid (BCA) assay (Sigma-Aldrich, 3B9643-1L-KC, MO, USA) according to the manufacturer’s instructions. […]"}}, "note": "Entries after “also recorded” stand apart in the source; their conditions may differ."}
{"smiles": "C[C@@H](O)[C@H](NC(=O)[C@H](Cc1ccccc1)NC(=O)[C@H](Cc1ccc(O)cc1)NC(=O)CN(CCCCN)C(=O)[C@H](CCCNC(=N)N)NC(=O)[C@H](CCCNC(=N)N)NC(=O)[C@H](CCCNC(=N)N)NC(=O)[C@H](CCNC(=N)N)NC(=O)[C@H](CCCNC(=N)N)NC(=O)[C@@H](N)CCCNC(=N)N)C(=O)NCC(=O)N[C@@H](CO)C(=O)N[C@@H](CCCCN)C(=O)N[C@@H](CC(=O)O)C(=O)N[C@@H](Cc1c[nH]c2ccccc12)C(=O)N[C@@H](CCCNC(=N)N)C(=O)N[C@@H](CO)C(=O)N[C@@H](Cc1ccc(O)cc1)C(=O)N[C@@H](Cc1ccc(O)cc1)C(=O)N[C@@H](CO)C(=O)O", "note": "[1g]", "values": [{"measurement": "effect on hippocampal cells containing α-synuclein aggregates", "setting": "[1]", "value": "effectively reduced the number of hippocampal cells containing α-synuclein; also recorded: visible dependence of the degradation ability on concentration"}, {"measurement": "permeability across artificial BBB membrane, PAMPA", "setting": "[2]", "value": "had the ability to penetrate the artificial membrane mimicking the BBB"}, {"measurement": "effect on endogenous α-synuclein in primary cortical cultures", "setting": "[3]", "value": "able to reduce the amount of endogenous α-synuclein"}]}
